For one molecule, IC50 results are on record in PMC5075677 (Medical Gas Research, 2016).

Where a chain is given by its changes, count along the chain named. Where a name gives a salt, the structure may show the parent alone.

The target in assay [1] is T1, heme oxygenase-2 (Homo sapiens, UniProt P30519, C265A/C282A).
T1 sequence (P30519 1-316 C265A/C282A): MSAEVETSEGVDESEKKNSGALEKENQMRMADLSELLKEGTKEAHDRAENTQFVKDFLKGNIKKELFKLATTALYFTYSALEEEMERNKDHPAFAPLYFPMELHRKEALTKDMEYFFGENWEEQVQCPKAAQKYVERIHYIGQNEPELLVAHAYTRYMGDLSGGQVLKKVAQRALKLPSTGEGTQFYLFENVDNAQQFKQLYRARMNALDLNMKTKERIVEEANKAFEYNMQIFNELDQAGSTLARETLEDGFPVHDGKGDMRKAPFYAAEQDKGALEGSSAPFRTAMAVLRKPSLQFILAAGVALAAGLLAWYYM
The assay is classed as biochemical.

The target of assay [2] is T2, heme oxygenase-2 (Homo sapiens, UniProt P30519).
T2 sequence (P30519 1-316): T1 sequence (P30519 1-316 C265A/C282A) with A265C, A282C
The assay is classed as biochemical.

For the molecule `c1ccc(CCn2c(CN3CCCC3)nc3ccccc32)cc1` [QC-2350, 1-(2-phenylethyl)-2-(pyrrolidin-1-ylmethyl)-1H-benzimidazole dihydrochloride], the IC50 in assay [1] turned out to be 29 µM; in assay [2] it was 20 µM.
